Calls of active or inactive are those of the source. The rule behind the calls is not given here.
Key:
[1] = biological target: Cyclin-dependent kinase 6 (Homo sapiens) (UniProt Q00534); assay: Inhibition of human CDK6 assessed as residual activity at 10 uM by kinome selectivity profiling analysis relative to control
[2] = biological target: Serine/threonine-protein kinase PLK4 (Homo sapiens) (UniProt O00444); assay: Inhibition of human PLK4 assessed as residual activity at 10 uM by kinome selectivity profiling analysis
Serine/threonine-protein kinase PLK4 (Homo sapiens), sequence (O00444 whole entry): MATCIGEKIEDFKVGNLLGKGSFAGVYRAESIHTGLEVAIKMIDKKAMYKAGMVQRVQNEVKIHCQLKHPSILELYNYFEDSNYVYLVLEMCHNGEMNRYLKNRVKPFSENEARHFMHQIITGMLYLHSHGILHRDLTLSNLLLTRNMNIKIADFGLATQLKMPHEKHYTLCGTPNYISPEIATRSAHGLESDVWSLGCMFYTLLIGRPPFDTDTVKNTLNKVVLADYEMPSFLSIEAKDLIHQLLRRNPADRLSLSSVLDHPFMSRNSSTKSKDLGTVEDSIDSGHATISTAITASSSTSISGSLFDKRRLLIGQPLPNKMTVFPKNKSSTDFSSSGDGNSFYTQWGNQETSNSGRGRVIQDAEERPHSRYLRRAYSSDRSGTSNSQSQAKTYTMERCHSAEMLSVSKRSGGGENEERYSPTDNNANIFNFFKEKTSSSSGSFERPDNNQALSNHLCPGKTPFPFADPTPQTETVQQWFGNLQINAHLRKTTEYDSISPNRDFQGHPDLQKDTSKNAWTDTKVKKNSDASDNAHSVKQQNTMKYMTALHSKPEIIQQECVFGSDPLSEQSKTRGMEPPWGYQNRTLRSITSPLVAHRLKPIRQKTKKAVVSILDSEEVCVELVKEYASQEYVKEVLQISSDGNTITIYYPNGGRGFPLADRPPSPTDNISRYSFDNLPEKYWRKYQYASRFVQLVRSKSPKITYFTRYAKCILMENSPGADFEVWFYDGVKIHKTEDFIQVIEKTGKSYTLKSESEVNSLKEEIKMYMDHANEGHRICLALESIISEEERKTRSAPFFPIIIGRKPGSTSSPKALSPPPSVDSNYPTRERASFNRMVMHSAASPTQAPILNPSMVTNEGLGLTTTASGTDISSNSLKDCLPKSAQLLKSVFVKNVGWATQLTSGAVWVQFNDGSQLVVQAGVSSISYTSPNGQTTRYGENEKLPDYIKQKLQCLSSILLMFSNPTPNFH

[3] = biological target: Calcium/calmodulin-dependent protein kinase kinase 2 (Homo sapiens) (UniProt Q96RR4); assay: Inhibition of human CaMKK2 assessed as residual activity at 10 uM by kinome selectivity profiling analysis relative to control
NCI-H460 = assay: cells; details: Homo sapiens
[4] = AUC (0 to infinity) in C57BL/6 mouse at 1 mg/kg, iv measured for 0.5 to 12 htr by LC-MS/MS analysis; format: ADME, organism-based; details: in vivo, time 0.5-12 hrs
[5] = Volume of distribution at steady state in C57BL/6 mouse at 1 mg/kg, iv measured for 0.5 to 12 htr by LC-MS/MS analysis; format: ADME, organism-based; details: in vivo, time 0.5-12 hrs, read-out: Vdss
[6] = Metabolic stability in dog liver microsomes assessed as intrinsic clearance in microsome measured per mg protein preincubated for 5 mins followed by NADPH addition by LC-MS/MS analysis; format: ADME, Canis lupus familiaris; details: read-out: CLH
[7] = Cytotoxicity against HEK293T cells assessed as cell viability at 30 uM by CCK8 assay relative to control; format: toxicity, cell-based, HEK-293T; details: human, read-out: Activity
[8] = Acute toxicity in mouse assessed as body weight change at 500 mg/kg, IG qd treated for 7 days; format: organism-based; details: in vivo, po, 168 h, time 7 day
[9] = Acute hematopoietic toxicity in mouse assessed as effect on red blood cells at 500 mg/kg, IG qd treated for 7 days; format: organism-based; details: in vivo, po, 168 h, time 7 day
Cytochrome P450 1A2 = Cytochrome P450 1A2 (Homo sapiens, UniProt P05177); assay: Inhibition of CYP1A2 in human liver microsomes using phenacetin as substrate preincubated with compound followed by substrate addition measured after 10 mins in presence of NADPH by LC-MS/MS analysis; format: ADME, Microsome
[10] = Toxicity in BALB/c mouse xenografted with human K562 cells assessed as change in body weight at 10 to 20 mg/kg, IG for 11 days treated on every 3 to 4 days; format: organism-based; details: in vivo, po, 264 h, dose 10-20 mg/kg, time 11 day
Cytochrome P450 2C9 = Cytochrome P450 2C9 (Homo sapiens, UniProt P11712); assay: Inhibition of CYP2C9 in human liver microsomes using diclofenac as substrate preincubated with compound followed by substrate addition measured after 10 mins in presence of NADPH by LC-MS/MS analysis; format: ADME, Microsome
Cytochrome P450 2C9, sequence (P11712 whole entry): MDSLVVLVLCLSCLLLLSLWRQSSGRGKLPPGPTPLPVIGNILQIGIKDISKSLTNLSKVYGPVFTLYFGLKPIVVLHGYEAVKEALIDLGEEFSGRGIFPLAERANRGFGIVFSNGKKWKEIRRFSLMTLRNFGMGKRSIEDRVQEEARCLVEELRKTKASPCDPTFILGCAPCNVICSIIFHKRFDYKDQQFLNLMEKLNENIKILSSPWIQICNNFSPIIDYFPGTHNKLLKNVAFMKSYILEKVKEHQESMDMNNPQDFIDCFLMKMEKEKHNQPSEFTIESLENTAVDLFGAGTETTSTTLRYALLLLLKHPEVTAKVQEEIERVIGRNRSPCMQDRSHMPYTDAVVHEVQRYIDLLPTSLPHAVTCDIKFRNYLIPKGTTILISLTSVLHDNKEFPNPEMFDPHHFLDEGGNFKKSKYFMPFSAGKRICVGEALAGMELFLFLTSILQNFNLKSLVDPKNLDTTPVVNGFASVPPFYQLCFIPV

[11] = Metabolic stability in mouse liver microsomes assessed as half life preincubated for 5 mins followed by NADPH addition by LC-MS/MS analysis; format: ADME, Microsome
[12] = biological target: cGMP-dependent protein kinase 2 (Homo sapiens) (UniProt Q13237); assay: Inhibition of human PRKG2 assessed as residual activity at 10 uM by kinome selectivity profiling analysis relative to control
cGMP-dependent protein kinase 2 (Homo sapiens), sequence (Q13237 whole entry): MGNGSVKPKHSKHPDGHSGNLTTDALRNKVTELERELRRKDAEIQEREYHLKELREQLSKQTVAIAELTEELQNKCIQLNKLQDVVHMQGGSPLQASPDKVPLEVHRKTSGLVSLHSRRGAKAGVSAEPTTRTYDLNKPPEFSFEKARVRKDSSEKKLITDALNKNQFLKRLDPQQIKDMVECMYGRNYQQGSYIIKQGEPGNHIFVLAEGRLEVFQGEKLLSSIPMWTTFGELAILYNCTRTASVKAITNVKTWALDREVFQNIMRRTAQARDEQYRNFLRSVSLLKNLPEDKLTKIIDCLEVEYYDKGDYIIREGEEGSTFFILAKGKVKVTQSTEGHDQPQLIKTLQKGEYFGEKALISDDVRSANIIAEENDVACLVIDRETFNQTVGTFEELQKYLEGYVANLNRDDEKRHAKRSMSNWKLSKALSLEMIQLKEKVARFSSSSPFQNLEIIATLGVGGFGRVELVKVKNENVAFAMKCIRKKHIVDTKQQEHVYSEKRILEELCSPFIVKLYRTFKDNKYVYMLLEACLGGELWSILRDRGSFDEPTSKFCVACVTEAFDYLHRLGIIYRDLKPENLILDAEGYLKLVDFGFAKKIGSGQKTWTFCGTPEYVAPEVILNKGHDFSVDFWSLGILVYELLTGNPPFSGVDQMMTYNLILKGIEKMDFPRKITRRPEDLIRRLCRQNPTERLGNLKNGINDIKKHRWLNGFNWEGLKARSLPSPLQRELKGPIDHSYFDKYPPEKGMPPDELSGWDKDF

[13] = Toxicity in BALB/c mouse xenografted with human K562 cells assessed as adverse effects at 10 to 20 mg/kg, IG for 11 days treated on every 3 to 4 days; format: organism-based; details: in vivo, po, 264 h, dose 10-20 mg/kg, time 11 day
[14] = Metabolic stability in mouse liver microsomes assessed as intrinsic clearance preincubated for 5 mins followed by NADPH addition by LC-MS/MS analysis; format: ADME, Microsome; details: read-out: CLH
[15] = Acute hematopoietic toxicity in mouse assessed as effect on white blood cells at 500 mg/kg, IG qd treated for 7 days; format: organism-based; details: in vivo, po, 168 h, time 7 day
[16] = Cmax in C57BL/6 mouse at 10 mg/kg, po measured for 0.5 to […] htr by LC-MS/MS analysis; format: ADME, organism-based; details: in vivo, time 0.5-12 hrs
[17] = biological target: Serine/threonine-protein kinase PLK2 (Homo sapiens, UniProt Q9NYY3); assay: Inhibition of human PLK2 using ATF2 as substrate incubated for 40 mins in presence of [gamma-33P]ATP/Mg acetate by scintillation counting analysis
Serine/threonine-protein kinase PLK2, sequence (Q9NYY3 whole entry): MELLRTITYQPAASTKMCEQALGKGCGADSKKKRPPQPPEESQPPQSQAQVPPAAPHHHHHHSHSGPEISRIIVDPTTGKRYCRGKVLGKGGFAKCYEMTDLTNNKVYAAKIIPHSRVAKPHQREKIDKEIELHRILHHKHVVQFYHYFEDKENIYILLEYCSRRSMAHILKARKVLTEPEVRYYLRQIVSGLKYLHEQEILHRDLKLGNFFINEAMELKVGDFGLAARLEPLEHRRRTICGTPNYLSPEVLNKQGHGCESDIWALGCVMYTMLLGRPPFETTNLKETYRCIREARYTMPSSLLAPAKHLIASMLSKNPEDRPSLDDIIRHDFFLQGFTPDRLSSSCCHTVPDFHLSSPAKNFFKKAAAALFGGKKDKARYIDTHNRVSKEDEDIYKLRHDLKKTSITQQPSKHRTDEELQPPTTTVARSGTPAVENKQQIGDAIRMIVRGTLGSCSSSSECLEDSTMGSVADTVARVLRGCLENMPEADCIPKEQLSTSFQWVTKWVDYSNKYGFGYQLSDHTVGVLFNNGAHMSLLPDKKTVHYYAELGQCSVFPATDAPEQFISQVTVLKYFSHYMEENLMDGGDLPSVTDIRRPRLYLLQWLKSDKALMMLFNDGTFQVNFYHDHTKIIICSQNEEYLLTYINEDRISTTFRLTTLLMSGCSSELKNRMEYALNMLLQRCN

[18] = Clearance in C57BL/6 mouse at 1 mg/kg, iv measured for 0.5 to […] htr by LC-MS/MS analysis; format: ADME, organism-based; details: in vivo, time 0.5-12 hrs
[19] = biological target: Serine/threonine-protein kinase PLK4 (Homo sapiens) (UniProt O00444); assay: Inhibition of human PLK4 assessed as residual activity at 10 uM by kinome selectivity profiling analysis relative to control
[20] = biological target: Voltage-gated inwardly rectifying potassium channel KCNH2 (Homo sapiens, UniProt Q12809); assay: Inhibition of hERG transfected in CHO cells; format: toxicity, cell-based
Voltage-gated inwardly rectifying potassium channel KCNH2, sequence (Q12809 whole entry): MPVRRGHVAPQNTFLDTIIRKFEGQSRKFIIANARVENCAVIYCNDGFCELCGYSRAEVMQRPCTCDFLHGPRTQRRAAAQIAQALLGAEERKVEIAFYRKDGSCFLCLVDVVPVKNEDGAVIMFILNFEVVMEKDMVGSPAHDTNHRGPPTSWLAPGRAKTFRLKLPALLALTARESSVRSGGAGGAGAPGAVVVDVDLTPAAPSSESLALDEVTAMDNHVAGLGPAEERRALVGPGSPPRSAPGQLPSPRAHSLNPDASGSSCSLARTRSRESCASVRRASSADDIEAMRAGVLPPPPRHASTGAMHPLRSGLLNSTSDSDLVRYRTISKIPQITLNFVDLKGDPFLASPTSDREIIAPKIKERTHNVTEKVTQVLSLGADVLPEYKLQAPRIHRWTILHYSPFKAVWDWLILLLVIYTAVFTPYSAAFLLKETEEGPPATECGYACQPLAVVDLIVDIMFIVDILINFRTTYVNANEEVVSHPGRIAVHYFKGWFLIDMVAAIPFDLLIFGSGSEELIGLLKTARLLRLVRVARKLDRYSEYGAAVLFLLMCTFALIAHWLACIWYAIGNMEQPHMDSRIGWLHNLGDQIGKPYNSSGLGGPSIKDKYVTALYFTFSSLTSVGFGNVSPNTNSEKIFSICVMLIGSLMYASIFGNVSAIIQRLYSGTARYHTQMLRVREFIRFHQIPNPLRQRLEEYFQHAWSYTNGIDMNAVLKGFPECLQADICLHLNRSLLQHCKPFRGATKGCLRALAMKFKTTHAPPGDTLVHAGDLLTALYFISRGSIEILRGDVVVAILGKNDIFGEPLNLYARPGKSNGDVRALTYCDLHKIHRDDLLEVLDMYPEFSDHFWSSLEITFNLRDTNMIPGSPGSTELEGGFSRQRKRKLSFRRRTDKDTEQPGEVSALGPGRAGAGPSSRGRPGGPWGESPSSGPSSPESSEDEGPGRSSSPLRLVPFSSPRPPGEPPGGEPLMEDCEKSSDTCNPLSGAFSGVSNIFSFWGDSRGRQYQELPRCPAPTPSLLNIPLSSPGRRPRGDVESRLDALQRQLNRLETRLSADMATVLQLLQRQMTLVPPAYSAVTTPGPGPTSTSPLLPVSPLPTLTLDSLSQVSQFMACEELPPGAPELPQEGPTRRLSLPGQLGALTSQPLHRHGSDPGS

SW-620 = assay: cells; details: Homo sapiens
Cytochrome P450 2B6 = Cytochrome P450 2B6 (Homo sapiens, UniProt P20813); assay: Inhibition of CYP2B6 in human liver microsomes using bupropion as substrate preincubated with compound followed by substrate addition measured after 10 mins in presence of NADPH by LC-MS/MS analysis; format: ADME, Microsome
[21] = Stability of compound in rat hepatocytes; format: ADME, cell-based, Hepatocyte
HEK-293T = assay: Cytotoxicity against HEK293T cells by CCK8 assay; format: toxicity, cell-based; details: human, dose 0.1-30 µM
[22] = C0 in C57BL/6 mouse at 1 mg/kg, iv measured for 0.5 to 12 htr by LC-MS/MS analysis; format: ADME, organism-based; details: in vivo, time 0.5-12 hrs
[23] = biological target: Aurora kinase A (Homo sapiens) (UniProt O14965); assay: Inhibition of human Aurora-A assessed as residual activity at 10 uM by kinome selectivity profiling analysis relative to control
Aurora kinase A (Homo sapiens), sequence (O14965 whole entry): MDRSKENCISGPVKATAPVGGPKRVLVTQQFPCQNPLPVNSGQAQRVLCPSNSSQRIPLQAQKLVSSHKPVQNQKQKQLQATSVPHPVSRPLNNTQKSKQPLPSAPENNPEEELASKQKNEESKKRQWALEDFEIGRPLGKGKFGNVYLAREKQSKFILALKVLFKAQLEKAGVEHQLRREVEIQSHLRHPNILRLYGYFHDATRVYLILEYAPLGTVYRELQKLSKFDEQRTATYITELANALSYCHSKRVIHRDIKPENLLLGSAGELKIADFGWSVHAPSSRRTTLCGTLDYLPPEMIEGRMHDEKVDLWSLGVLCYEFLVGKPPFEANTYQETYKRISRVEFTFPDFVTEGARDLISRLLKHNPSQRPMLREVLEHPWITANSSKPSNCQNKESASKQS

PC-9 = assay: cells; details: Homo sapiens
[24] = Oral bioavailability in C57BL/6 mouse at 10 mg/kg measured for 0.5 to […] htr by LC-MS/MS analysis; format: ADME, organism-based; details: in vivo, time 0.5-12 hrs
[25] = biological target: Serine/threonine-protein kinase PLK1 (Homo sapiens, UniProt P53350); assay: Inhibition of human PLK1 at 10 uM by kinome selectivity profiling analysis relative to control
Serine/threonine-protein kinase PLK1, sequence (P53350 whole entry): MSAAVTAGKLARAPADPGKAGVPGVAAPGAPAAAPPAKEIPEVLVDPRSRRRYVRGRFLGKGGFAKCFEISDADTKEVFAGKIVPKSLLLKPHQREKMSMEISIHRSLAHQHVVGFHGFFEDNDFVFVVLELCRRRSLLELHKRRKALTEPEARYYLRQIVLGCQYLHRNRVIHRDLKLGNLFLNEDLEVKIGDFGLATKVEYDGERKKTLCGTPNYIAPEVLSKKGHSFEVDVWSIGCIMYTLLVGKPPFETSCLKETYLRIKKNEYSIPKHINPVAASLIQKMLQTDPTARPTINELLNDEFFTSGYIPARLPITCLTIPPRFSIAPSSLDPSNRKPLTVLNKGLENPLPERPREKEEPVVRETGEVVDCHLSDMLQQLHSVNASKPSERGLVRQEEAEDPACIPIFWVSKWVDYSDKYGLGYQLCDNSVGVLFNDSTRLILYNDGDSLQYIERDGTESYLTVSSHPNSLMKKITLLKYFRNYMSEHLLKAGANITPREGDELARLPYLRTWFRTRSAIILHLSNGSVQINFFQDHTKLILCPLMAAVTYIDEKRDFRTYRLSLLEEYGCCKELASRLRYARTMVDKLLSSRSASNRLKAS

[26] = Selectivity ratio of IC50 for inhibition of human PLK3 using ATF2 as substrate to IC50 for inhibition of human PLK1 using ATF2 as substrate
[27] = Acute toxicity in mouse assessed as damage in lung at 500 mg/kg, IG qd treated for 7 days by H and E staining based analysis; format: organism-based; details: in vivo, po, 168 h, time 7 day
[28] = AUC (0 to t) in C57BL/6 mouse at 1 mg/kg, iv measured for 0.5 to […] htr by LC-MS/MS analysis; format: ADME, organism-based; details: in vivo, time 0.5-12 hrs
[29] = biological target: Dual specificity protein kinase CLK2 (Homo sapiens) (UniProt P49760); assay: Inhibition of human CLK2 assessed as residual activity at 10 uM by kinome selectivity profiling analysis relative to control
[30] = biological target: Serine/threonine-protein kinase PLK3 (Homo sapiens, UniProt Q9H4B4); assay: Inhibition of human PLK3 assessed as residual activity at 10 uM by kinome selectivity profiling analysis relative to control
CCRF-CEM = assay: cells; details: Homo sapiens

In the case of CC[C@@H]1C(=O)N(C)c2cnc(Nc3cc(N4CCN(C)CC4)cc(Cl)c3OCCCO)nc2N1C1CCCC1, the Activity [1] is reported as 103%, the inhibition [2] is reported as “inactive” and the Activity [3] is reported as 73%. The IC50 (NCI-H460) was 12 nM, the AUC(0-inf) [4] was 183 ng·h/mL and the Vd [5] was 3.6 L/kg. For the same molecule, the microsomal CLint [6] was 190 µL/min/mg, the viability at 30 µM [7] was 68% and the Activity [8] was “Non-toxic”. The Activity [9] was “Non-toxic”, the IC50 (Cytochrome P450 1A2) was greater than 10000 nM and the Activity [10] was “Non-toxic”. For the same molecule, the IC50 (Cytochrome P450 2C9) was 9600 nM, the half-life [11] was 16.6 min and the Activity [12] was 110%. For the same molecule, the Activity [13] was “Non-toxic”, the CLint scaled [14] was 829 mL/min/kg and the Activity [15] was “Non-toxic”. For the same molecule, the Cmax [16] was 328 ng/mL, the IC50 [17] was greater than 10000 nM and the clearance [18] was 91 mL/min/kg. The Activity [19] was 104%, the IC50 [20] was 44200 nM and the IC50 (SW-620) was 8.2 nM. For the same molecule, the IC50 (Cytochrome P450 2B6) was greater than 10000 nM, the Stability [21] was “Stable” and the Activity (HEK-293T) was “Dose-dependent-effect”. For the same molecule, the C0 [22] was 328 ng/mL, the Activity [23] was 110% and the IC50 (PC-9) was 775 nM. For the same molecule, the bioavailability [24] was 45%, the inhibition [25] was 100% and the ratio [26] was 197. For the same molecule, the Activity [27] was “Non-toxic”, the AUC(0-t) [28] was 181 ng·h/mL and the Activity [29] was 70%. The Activity [30] was 11% and the IC50 (CCRF-CEM) was 41 nM.
